Structures can show the parent of a compound that is named as a salt.
Legend:
[1] = system: Eimeria tenella; experiment: chick feeding experiment, Eimeria tenella challenge; type: in vivo, chickens; details: 100 ppm in diet; Na salt
Source text: A feeding experiment in young chickens confirms that the deoxynarasin antibiotics have anticoccidial activity in vivo.
^1 Two cages of four chickens each per treatment.
^2 Maximum possible score = 4.00.

[2] = stability in alcohols; type: physicochemical; details: free acid; e.g. methanol, room temperature, four hours
Protocol: For example, 20-deoxynarasin acid (435.1 mg) was dissolved in methanol (40 ml) and allowed to stand at room temperature for four hours. The solution was then evaporated to dryness under vacuum; the residue was redissolved in dioxane and lyophilized to give 417.8 mg of 20-deoxy-epi-17-narasin acid.

[3] = solubility; type: physicochemical

Structure (SMILES)	mortality (in words) [1]	number of lesions (in words) [1]	weight gains (in words) [1]	stability in alcohols [2]	solubility ([3]; methanol, ethanol, dimethylformamide, dimethyl sulfoxide, ethyl acetate, chloroform, acetone and benzene)	solubility ([3]; nonpolar organic solvents such as hexane)	solubility ([3]; water)
CCC(C(=O)O)C1OC(C(C)C(O)C(C)C(=O)C(CC)C2OC3(C=CCC4(CCC(C)(C5CCC(O)(CC)C(C)O5)O4)O3)C(C)CC2C)C(C)CC1C (stereo not shown) [20-deoxynarasin (Na salt), 20-deoxynarasin]	prevented mortality	decreased the number of lesions	improved weight gains	–	–	–	–
CCC(C(=O)O)C1OC(C(C)C(O)C(C)C(=O)C(CC)C2OC3(C=CCC4(CCC(C)(C5CCC(O)(CC)C(C)O5)O4)O3)C(C)CC2C)C(C)CC1C (stereo not shown) [20-deoxynarasin]	–	–	–	unstable in alcohols, converting to 20-deoxy-epi-17-narasin free acid	soluble	only slightly soluble	insoluble

Reference: patent publication US4204039A, “Process for producing deoxynarasin antibiotics” (Eli Lilly and Company, priority 1978, dated 1980)
